According to ChEMBL document CHEMBL1255536, “Synthesis of aminoquinazoline derivatives and their antiproliferative activities against melanoma cell line” (Bioorg Med Chem Lett, 2010):

Experiments:
[1] = Cytotoxicity against human A375P cells at 100 uM after 24 hrs by MTT assay; format: functional, cell-based
[2] = Cytotoxicity against human A375P cells after 24 hrs by MTT assay; format: functional, cell-based
HS27 = test: Cytotoxicity against human HS27 cells after 24 hrs by MTT assay; format: cell-based; settings: HS27, 24 h
[3] = molecular target: Serine/threonine-protein kinase B-raf (Homo sapiens, UniProt P15056, V600E); test: Inhibition of b-Raf V600E mutant
Chain of Serine/threonine-protein kinase B-raf (P15056 2-766 V600E limits assumed): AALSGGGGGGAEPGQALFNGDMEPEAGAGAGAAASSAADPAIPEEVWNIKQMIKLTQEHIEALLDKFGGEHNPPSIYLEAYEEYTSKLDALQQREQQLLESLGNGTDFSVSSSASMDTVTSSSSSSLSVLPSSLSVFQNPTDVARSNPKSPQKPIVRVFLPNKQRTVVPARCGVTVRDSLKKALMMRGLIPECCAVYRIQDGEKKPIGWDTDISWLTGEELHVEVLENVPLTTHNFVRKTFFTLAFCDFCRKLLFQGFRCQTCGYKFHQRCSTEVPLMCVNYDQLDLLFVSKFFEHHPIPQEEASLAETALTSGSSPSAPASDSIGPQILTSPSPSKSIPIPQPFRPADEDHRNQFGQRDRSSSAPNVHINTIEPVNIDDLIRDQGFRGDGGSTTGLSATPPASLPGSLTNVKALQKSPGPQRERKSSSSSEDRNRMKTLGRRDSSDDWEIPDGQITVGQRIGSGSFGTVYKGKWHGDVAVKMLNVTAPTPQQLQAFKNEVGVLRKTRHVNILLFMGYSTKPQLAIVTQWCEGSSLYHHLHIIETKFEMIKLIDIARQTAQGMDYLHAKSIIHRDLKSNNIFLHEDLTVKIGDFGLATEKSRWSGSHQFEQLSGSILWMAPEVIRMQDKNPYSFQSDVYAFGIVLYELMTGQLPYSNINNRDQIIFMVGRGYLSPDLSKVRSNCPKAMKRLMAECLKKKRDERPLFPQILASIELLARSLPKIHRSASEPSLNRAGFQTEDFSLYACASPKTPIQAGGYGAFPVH

[4] = molecular target: RAF proto-oncogene serine/threonine-protein kinase (Homo sapiens, UniProt P04049); test: Inhibition of c-Raf
Chain of RAF proto-oncogene serine/threonine-protein kinase (P04049 whole entry): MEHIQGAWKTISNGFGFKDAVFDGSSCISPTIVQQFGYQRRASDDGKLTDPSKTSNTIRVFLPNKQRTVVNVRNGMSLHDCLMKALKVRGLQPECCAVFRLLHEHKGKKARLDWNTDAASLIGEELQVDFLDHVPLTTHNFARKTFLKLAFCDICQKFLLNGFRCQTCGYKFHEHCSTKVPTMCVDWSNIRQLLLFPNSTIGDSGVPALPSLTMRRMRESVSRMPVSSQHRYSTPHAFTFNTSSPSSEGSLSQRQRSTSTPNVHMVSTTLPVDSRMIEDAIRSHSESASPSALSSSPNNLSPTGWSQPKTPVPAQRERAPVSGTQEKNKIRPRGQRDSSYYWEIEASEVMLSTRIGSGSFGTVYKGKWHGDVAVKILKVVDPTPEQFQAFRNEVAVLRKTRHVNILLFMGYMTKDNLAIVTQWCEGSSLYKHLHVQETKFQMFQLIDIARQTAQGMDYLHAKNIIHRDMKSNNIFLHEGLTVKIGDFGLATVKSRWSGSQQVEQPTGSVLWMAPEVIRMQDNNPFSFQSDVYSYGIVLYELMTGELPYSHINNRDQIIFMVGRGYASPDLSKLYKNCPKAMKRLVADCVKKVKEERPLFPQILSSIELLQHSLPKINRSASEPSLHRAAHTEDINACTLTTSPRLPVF

Compound	IC50 [1]	IC50 [2] [nM]	also measured
CNc1ncnc2c(CNc3cc(NC(=O)c4ccncc4Cl)ccc3C)cccc12	Not Active	–	–
CNc1ncnc2c(CNc3cc(NC(=O)c4ccc(Cl)c(-n5cnc(C)c5)c4)ccc3C)cccc12	Not Active	–	–
CNc1ncnc2c(CNc3cc(NC(=O)c4cc(C)oc4C)ccc3C)cccc12	Not Active	–	–
CNc1ncnc2c(CNc3cc(NC(=O)c4ccc(-c5ccc(OC)cc5)o4)ccc3C)cccc12	Not Active	–	–
CNc1ncnc2c(CNc3cc(NC(=O)c4ccc(N)c(C(F)(F)F)c4)ccc3C)cccc12	Not Active	–	–
CNc1ncnc2c(CNc3cc(NC(=O)c4cnccn4)ccc3C)cccc12	Not Active	–	–
CNc1ncnc2c(CNc3cc(NC(=O)c4ccc(Cl)c(C(F)(F)F)c4)ccc3C)cccc12	–	9700	–
CNc1ncnc2c(CNc3cc(NC(=O)c4ccc(OC)c5ccc(OC)cc45)ccc3C)cccc12	Not Active	–	–
CNc1ncnc2c(CNc3cc(NC(=O)c4cc(C)on4)ccc3C)cccc12	–	1200	–
CNc1ncnc2c(CNc3cc(NC(=O)c4ccc5c(c4)OCCO5)ccc3C)cccc12	–	137	IC50 (HS27): 1200 nM
CNc1ncnc2c(CNc3cc(NC(=O)c4cc(C(F)(F)F)cc(C(F)(F)F)c4)ccc3C)cccc12	–	769	–
CNc1ncnc2c(CNc3cc(NC(=O)c4cc(=O)c5ccccc5o4)ccc3C)cccc12	–	6	IC50 (HS27): 230 nM; IC50 [3]: 19500 nM; IC50 [4]: 765 nM
CNc1ncnc2c(CNc3cc(NC(=O)c4cc5ccccc5s4)ccc3C)cccc12	Not Active	–	–
CNc1ncnc2c(CNc3cc(NC(=O)c4ccc(Br)s4)ccc3C)cccc12	–	10500	–
CNc1ncnc2c(CNc3cc(NC(=O)c4ccnnc4)ccc3C)cccc12	–	61700	–
CNC(=O)c1cc(Oc2ccc(NC(=O)Nc3ccc(Cl)c(C(F)(F)F)c3)cc2)ccn1 [SORAFENIB]	–	5580	–
CNc1ncnc2c(CNc3cc(NC(=O)c4ccc(-c5cc(C(F)(F)F)ccc5Cl)o4)ccc3C)cccc12	–	14900	–
CNc1ncnc2c(CNc3cc(NC(=O)c4cccc(C(F)(F)F)c4)ccc3C)cccc12	–	433	–
CNc1ncnc2c(CNc3cc(NC(=O)c4cscn4)ccc3C)cccc12	–	1900	–
